{
  "source": "paper PMC8908504",
  "about": "(ACS Omega, 2022)",
  "key": {"KV7.2/3 channel [1]": {"target": "T1, KV7.2/3 channel (Homo sapiens, UniProt O43525+O43526)", "T1 sequence (O43526 whole entry)": "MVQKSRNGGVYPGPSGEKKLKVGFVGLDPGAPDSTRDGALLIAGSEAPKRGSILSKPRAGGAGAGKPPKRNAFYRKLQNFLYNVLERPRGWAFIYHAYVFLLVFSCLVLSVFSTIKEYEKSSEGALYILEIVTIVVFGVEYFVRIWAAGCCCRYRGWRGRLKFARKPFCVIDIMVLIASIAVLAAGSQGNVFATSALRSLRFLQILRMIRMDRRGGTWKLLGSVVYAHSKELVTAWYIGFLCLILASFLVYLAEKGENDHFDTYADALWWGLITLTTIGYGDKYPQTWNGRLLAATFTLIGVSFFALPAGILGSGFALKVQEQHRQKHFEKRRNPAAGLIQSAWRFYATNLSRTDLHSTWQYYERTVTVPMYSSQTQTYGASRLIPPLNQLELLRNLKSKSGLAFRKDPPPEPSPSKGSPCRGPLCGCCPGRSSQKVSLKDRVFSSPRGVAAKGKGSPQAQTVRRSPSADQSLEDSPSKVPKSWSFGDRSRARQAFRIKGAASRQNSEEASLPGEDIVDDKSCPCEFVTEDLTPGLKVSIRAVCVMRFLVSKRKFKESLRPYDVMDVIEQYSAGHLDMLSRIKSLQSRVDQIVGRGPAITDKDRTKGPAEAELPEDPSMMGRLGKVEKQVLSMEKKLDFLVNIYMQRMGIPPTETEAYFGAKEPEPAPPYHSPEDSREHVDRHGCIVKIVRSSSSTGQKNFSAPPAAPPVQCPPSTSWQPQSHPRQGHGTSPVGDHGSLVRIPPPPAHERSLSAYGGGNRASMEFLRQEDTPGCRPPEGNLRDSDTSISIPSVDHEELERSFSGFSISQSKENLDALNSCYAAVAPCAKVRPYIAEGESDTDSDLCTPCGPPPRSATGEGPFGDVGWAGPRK", "T1 sequence (O43525 whole entry)": "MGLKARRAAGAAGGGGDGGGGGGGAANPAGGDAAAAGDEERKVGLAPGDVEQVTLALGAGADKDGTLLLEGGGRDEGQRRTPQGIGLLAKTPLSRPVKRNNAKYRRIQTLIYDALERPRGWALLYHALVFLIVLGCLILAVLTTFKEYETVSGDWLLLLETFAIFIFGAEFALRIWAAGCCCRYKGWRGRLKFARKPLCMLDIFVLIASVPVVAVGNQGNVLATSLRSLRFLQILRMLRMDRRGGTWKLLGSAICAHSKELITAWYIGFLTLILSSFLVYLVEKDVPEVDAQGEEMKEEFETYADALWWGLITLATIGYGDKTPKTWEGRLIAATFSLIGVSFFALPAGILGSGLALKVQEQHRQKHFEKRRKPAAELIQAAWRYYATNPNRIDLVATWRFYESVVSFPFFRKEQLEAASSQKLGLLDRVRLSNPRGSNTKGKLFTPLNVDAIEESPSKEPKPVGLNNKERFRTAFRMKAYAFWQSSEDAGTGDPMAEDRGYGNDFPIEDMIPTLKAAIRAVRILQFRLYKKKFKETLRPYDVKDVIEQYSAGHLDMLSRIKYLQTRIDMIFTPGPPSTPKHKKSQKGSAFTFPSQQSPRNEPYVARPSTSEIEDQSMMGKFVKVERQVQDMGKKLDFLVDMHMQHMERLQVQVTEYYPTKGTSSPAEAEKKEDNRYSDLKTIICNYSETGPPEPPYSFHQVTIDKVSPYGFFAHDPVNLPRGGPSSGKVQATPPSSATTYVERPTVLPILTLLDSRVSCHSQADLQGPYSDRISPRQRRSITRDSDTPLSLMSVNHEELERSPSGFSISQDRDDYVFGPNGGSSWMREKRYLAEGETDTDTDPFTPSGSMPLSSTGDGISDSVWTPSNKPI", "assay": "KV7.2/3 channel opening assay (thallium-sensitive fluorescence)", "format": "cell-based", "conditions": "for potency relative to flupirtine: KV7.2/3 opening, EC50 compared with flupirtine", "experimental": "To evaluate the biological activity, the synthesized analogues were tested on HEK293 cells overexpressing the KV7.2/3 channel. The measurement was carried out in a fluorescence-based assay in which a thallium-sensitive dye generated the fluorescence signal. Due to its similarity to potassium, thallium can also pass through KV7 channels. The intensity of the fluorescence signal correlates with the amount of intracellular thallium and thus with the ability of the compounds to open KV7 channels. To determine the potency, the fluorescence intensity was measured as a function of the compound concentration. The efficacy was determined relative to the maximum fluorescence signal induced by flupirtine. For a summary of the activity data, see Table 2.\nThe cell culture of the KV7.2/3 transfected HEK293 cells (HEK293 KCNQ2/3 cells from SB Drug Discovery, Glasgow, UK) used for the assay and the processing of the obtained data were performed as described in earlier work.[27],[29] Briefly, 60,000 cells/well were seeded into 96-well microtiter plates for fluorescence-based assays (4titude Vision Plate Black 96-Well microtiter plates from ThermoScientic) and incubated for 24 h. After incubation, the medium was changed to 200 μL/well loading buffer containing 5 mmol/L probenecid and incubated for 1 h at room temperature. Subsequently, the test compounds dissolved in DMSO were added to the wells to the desired concentrations and further incubated for 30 min. As a control, the loading buffer with a DMSO concentration corresponding to the substance samples (1% (V/V)) was used. Fluorescence measurements were performed on the Infinite F200 Pro plate reader (Tecan) set at […]/emission wavelengths of 485 and 535 nm, respectively. After measuring the background fluorescence (baseline) for 20 s, a stimulus buffer (25 mmol/L K^+, 15 mmol/L Tl^+) was added just before the fluorescence of each well was measured.\nThe calculations to obtain dose–response curves were performed in the same manner as in previous investigations.[27],[29] Briefly, the fluorescence intensity was normalized with the baseline signal (F/F0) at each time of signal acquisition. To obtain the corrected negative control, a value of 1 was subtracted from the normalized value of the negative control. Subsequently, the value of the corrected negative control was subtracted from the maximum (corr. F/F0) value of a compound in a defined concentration (corr. ΔF/F0) and then plotted against the logarithmic concentration. The EC50 value was calculated as relative values with GraphPad Prism 6 (La Jolla, CA, USA), that is, the inflection points of the sigmoidal curves. The Emax value, the maximum response, indicates the intrinsic activity of a compound. This value was determined relative to flupirtine (1), where the maximum corr. ΔF/F0 value of flupirtine (1) was defined as 100%. The EC50 and Emax value of a compound is the mean of at least three independent experiments ± standard deviation (SD)."}, "HEP-G2 cells [2]": {"system": "HEP-G2 cells", "assay": "MTT cell viability assay, HEP-G2 cells", "conditions": "HEP-G2 cells, MTT assay, 24 h exposure; for LD25: 25% reduction of viability; for LD50: 50% reduction of viability", "from_the_text": "(§1) In addition to the activity, basic toxicological properties of the newly synthesized compounds were also investigated by using the 3-(4,5-dimethylthiazol-2-yl)-2,5-diphenyltetrazolium bromide (MTT) cell viability assay on mouse TAMH and human HEP-G2 hepatic cell lines (see Table 2). Both cell lines are established for the evaluation of hepatotoxicity.[42],[43]\n(§2) The culturing of the mouse liver TAMH and human liver cancer HEP-G2 cell lines and the MTT assay used to evaluate cell viability were carried out as previously described elsewhere in detail.[27],[29] […] The medium in the wells was then replaced with the medium containing the compounds. Control wells contained an equivalent number of cells and 1% (v/v) DMSO. Wells without cells were used to determine the background optical density (OD) and were treated as the control wells. After 24 or 48 h of incubation with the compound, the respective medium was replaced with a fresh medium supplemented with 10% (v/v) of a 2.5 mg/mL solution of MTT. The plates were incubated for 4 h. Then, the culture medium was carefully aspirated off and 50 μL of DMSO was added to each well to dissolve the formazan crystals. The ODs of each well were measured at λ = 570 nm with a SpectraMax 190 microplate reader.\n(§3) The calculated T/Ccorr. values were plotted against the log(concentration). The LD50 and LD25 values were determined by using GraphPad Prism 6. […] The values are given as the mean with SD of at least three independent experiments."}, "[3]": {"assay": "Maximum concentration without precipitation in MTT assay buffer", "format": "physicochemical", "source_text": "A limitation in the in vitro toxicity testing was the occasional poor water solubility of the analogues."}, "TAMH cells [4]": {"system": "TAMH cells", "assay": "MTT cell viability assay, TAMH cells", "conditions": "TAMH cells, MTT assay, 24 h exposure; for LD25: 25% reduction of viability; for LD50: 50% reduction of viability", "from_the_text": "as §1, §2, §3"}, "[5]": {"assay": "log D7.4 estimation by HPLC-based method", "format": "physicochemical", "experimental": "The log D7.4 values were estimated using a common HPLC-based method in accordance with guideline OPPTS 830.7570 of the United States Environmental Protection Agency (EPA). The HPLC measurements were performed with a Phenomenex Luna 5 μm Phenyl-Hexyl 100 Å column (150 × 4.6 mm). […]. Uracil was used to measure the unretained peak time. To obtain a calibration function, the logarithm of the capacity factors for the reference substances was then plotted against the corresponding log P values taken from the mentioned guideline, which are equivalent to the log D7.4 values for non-ionizable compounds like the reference substances used for calibration. With this calibration function, it was possible to estimate the log D7.4 value from the corresponding retention time for each compound to be tested. For the measurement, 2 mg of the reference substances was each dissolved in 1 mL of methanol. A reference mixture was then obtained by combining 50 μL of each reference solution. The reference mixture was measured before and after the substances to be tested. The mean value from both measurements was used for the calibration line. The substances to be tested were injected as a solution in methanol (2 mg/mL), and the retention time was determined as the mean value from two measurements."}, "[6]": {"design": "method as in guideline OPPTS 830.7570 (EPA)", "conditions": "reference substances for calibration; log P values; ref guideline OPPTS 830.7570 (EPA); cited from earlier work"}, "HEP-G2 cells [7]": {"system": "HEP-G2 cells", "conditions": "MTT assay, 24 h exposure; cited from earlier work"}, "TAMH cells [8]": {"system": "TAMH cells", "conditions": "MTT assay, 24 h exposure; cited from earlier work"}, "KV7.2/3 channel [9]": {"target": "T1, KV7.2/3 channel", "conditions": "cited from earlier work"}, "[10]": {"conditions": "HPLC, Phenomenex Luna 5 μm Phenyl-Hexyl column, pH 7.4, HPLC, mean of two calibrations, read-out: logD7.4 (mean)"}, "[11]": {"conditions": "HPLC, Phenomenex Luna 5 μm Phenyl-Hexyl column, pH 7.4, estimated by HPLC-based method, pH 7.4, read-out: log D7.4"}},
  "note": "“Also recorded” adds a separate entry of the source. Where two headings read alike, the source gives them in different places. Marks after values point to notes of the source that are not given here.",
  "data": [
    {"smiles": "COc1nc(NCc2ccc(F)cc2)cc(C)c1C(=O)NCc1ccc(F)cc1", "note": "[36b, N-(4-Fluorobenzyl)-6-[(4-fluorobenzyl)amino]-2-methoxy-4-methylnicotinamide]", "values": [
      {"measurement": "EC50", "setting": "KV7.2/3 channel [1]; HEK293 cells overexpressing KV7.2/3, concentration for half-maximal channel opening, mean ± SD, ≥3 determinations", "value": 310, "unit": "nM"},
      {"measurement": "efficacy", "setting": "KV7.2/3 channel [1]; HEK293 cells overexpressing KV7.2/3, relative to maximum signal of flupirtine (=100%)", "value": "105 ± 12", "unit": "%"},
      {"measurement": "potency relative to flupirtine", "setting": "KV7.2/3 channel [1]", "value": "about six times more potent than flupirtine; also recorded: six times as potent as flupirtine"},
      {"measurement": "potency relative to flupirtine", "setting": "KV7.2/3 channel [1]; listed as N-(4-fluorobenzyl)-6-[(4-fluorobenzyl)amino]-2-methoxy-4-methylnicotinamide", "value": "six times as active as flupirtine"},
      {"measurement": "LD25", "setting": "HEP-G2 cells [2]", "value": ">16", "unit": "µM"},
      {"measurement": "LD50", "setting": "HEP-G2 cells [2]", "value": ">16", "unit": "µM"},
      {"measurement": "maximum concentration achieved without precipitating", "setting": "[3]", "value": 63, "unit": "µM"},
      {"measurement": "LD25", "setting": "TAMH cells [4]", "value": ">63", "unit": "µM"},
      {"measurement": "LD50", "setting": "TAMH cells [4]", "value": ">63", "unit": "µM"},
      {"measurement": "chromatographic logD", "setting": "[5]; HPLC, Phenomenex Luna 5 μm Phenyl-Hexyl column, pH 7.4, HPLC, calibration A1, read-out: logD7.4", "value": 4.13},
      {"measurement": "chromatographic logD", "setting": "[5]; HPLC, Phenomenex Luna 5 μm Phenyl-Hexyl column, pH 7.4, HPLC, calibration B1, read-out: logD7.4", "value": 4.09},
      {"measurement": "chromatographic logD", "setting": "[5]; [10]", "value": 4.1},
      {"measurement": "chromatographic logD", "setting": "[5]; [11]", "value": 4.1}
    ]},
    {"smiles": "c1ccc(N(c2ccccc2)c2ccccc2)cc1", "note": "[Triphenylamine]", "values": [
      {"measurement": "logD (Lit.)", "setting": "[6]", "value": 5.7}
    ]},
    {"smiles": "CCOC(=O)Nc1ccc(NCc2ccc(F)cc2)cc1N", "note": "[compound 2, retigabine]", "values": [
      {"measurement": "LD25", "setting": "HEP-G2 cells [7]", "value": "269 ± 166 ^f μM"},
      {"measurement": "LD50", "setting": "HEP-G2 cells [7]", "value": ">400 ^f μM"},
      {"measurement": "LD50", "setting": "TAMH cells [8]", "value": ">400 ^f μM"},
      {"measurement": "EC50", "setting": "KV7.2/3 channel [9]; HEK293 cells overexpressing KV7.2/3, mean ± SD", "value": "147 ± 12", "unit": "nM"},
      {"measurement": "efficacy", "setting": "KV7.2/3 channel [9]; HEK293 cells overexpressing KV7.2/3, relative to flupirtine", "value": "134 ± 16 ^f %"},
      {"measurement": "chromatographic logD", "setting": "[5]; pH 7.4, HPLC, calibration C, read-out: logD7.4", "value": 2.05},
      {"measurement": "chromatographic logD", "setting": "[5]; pH 7.4, HPLC, calibration D, read-out: logD7.4", "value": 2.06},
      {"measurement": "chromatographic logD", "setting": "[5]; pH 7.4, HPLC, mean of two calibrations, read-out: logD7.4 (mean)", "value": 2.1},
      {"measurement": "chromatographic logD", "setting": "[5]; pH 7.4, estimated by HPLC-based method, pH 7.4, read-out: log D7.4", "value": 2.1}
    ]},
    {"smiles": "Cc1cc(NCc2ccc(F)cc2)[nH]c(=O)c1C(=O)NCc1ccc(F)cc1", "note": "[compound 37, N-(4-Fluorobenzyl)-6-[(4-fluorobenzyl)amino]-4-methyl-2-oxo-1,2-dihydropyridine-3-carboxamide]", "values": [
      {"measurement": "melting point", "value": 196, "unit": "°C"}
    ]},
    {"smiles": "O=C(Cc1cc(F)cc(F)c1)Nc1ccc(N2CCOCC2)nc1N1CCOCC1", "note": "[compound 49]", "values": [
      {"measurement": "EC50", "setting": "KV7.2/3 channel [9]; KV7.2/3, lead structure from previous work, read-out: EC50", "value": 11, "unit": "nM"}
    ]},
    {"smiles": "Cc1cc(NCc2ccc(F)cc2)nc(N2CCOCC2)c1CNC(=O)OCC(C)C", "note": "[compound 66, Isobutyl ({6-[(4-Fluorobenzyl)amino]-4-methyl-2-morpholinopyridin-3-yl}methyl)carbamate]", "values": [
      {"measurement": "EC50", "setting": "KV7.2/3 channel [1]; HEK293 cells overexpressing KV7.2/3, footnote e", "value": "> 10000", "unit": "nM"},
      {"measurement": "KV7.2/3 channel opening activity (in words)", "setting": "KV7.2/3 channel [1]; inactive = no channel opening activity detected up to a concentration of 10 μM", "value": "inactive"},
      {"measurement": "LD25", "setting": "HEP-G2 cells [2]", "value": "24 ± 27", "unit": "µM"},
      {"measurement": "LD50", "setting": "HEP-G2 cells [2]", "value": ">125", "unit": "µM"},
      {"measurement": "LD25", "setting": "TAMH cells [4]", "value": "52 ± 61", "unit": "µM"},
      {"measurement": "LD50", "setting": "TAMH cells [4]", "value": ">125", "unit": "µM"},
      {"measurement": "chromatographic logD", "setting": "[5]; HPLC, Phenomenex Luna 5 μm Phenyl-Hexyl column, pH 7.4, HPLC, calibration A2, read-out: logD7.4", "value": 4.75},
      {"measurement": "chromatographic logD", "setting": "[5]; HPLC, Phenomenex Luna 5 μm Phenyl-Hexyl column, pH 7.4, HPLC, calibration B2, read-out: logD7.4", "value": 4.75},
      {"measurement": "chromatographic logD", "setting": "[5]; [10]", "value": 4.8},
      {"measurement": "chromatographic logD", "setting": "[5]; [11]", "value": 4.8}
    ]}
  ]
}
